Where “and” joins values, the source holds several entries; their conditions need not be identical. Equal entries are not always repeated.

The nature of experiment [1]: Roundtable assessment of sweetness linger (scale 0 to 6). Details: key: 0 = none; 1 = trace/faint; 2 = slight; 3 = moderate; 4 = definite; 5 = strong; 6 = extreme. In kind it is in vivo. The protocol: In some aspects, the amount of sensory modifier compound effective to […] can be determined by panel testing with trained panelists. For example, sweetness linger can be determined by the following test: For other sweetness attributes, the solutions were tested by a panel of at least four individuals that are highly-trained in tasting steviol glycoside solutions. The highly-trained panelists used a roundtable methodology to assess each sweetness attribute. To test each solution, the highly-trained panelists dispensed approximately 2 mL of each solution into their own mouths by transfer pipet, dispersed the solution by moving their tongues, and recorded a value for the particular sweetness attribute being tested. Between tasting solutions, the panelists were able to cleanse their palates with water. For each sweetness attribute, the panelist agreed on a descriptive scale with relative intensities assigned for each sweetness attribute and then recorded the values for each sweetness attribute against this. For example, this roundtable assessment of sweetness linger assigned a scale of 0 to 6 with a score of 0 indicating no sweetness linger and a score of 6 indicating extreme sweetness linger. Roundtable assessment of sweetness linger assigned a scale of 0 to 6 with a score of 0 indicating no sweetness linger and a score of 6 indicating extreme sweetness linger (0=none, 1=trace, 2=slight, 3=moderate, 4=definite, 5=strong, 6=extreme). Roundtable assessment of rounded assigned a scale of 0 to 3 with a score of 0 indicating spikey and a score of 3 indicating desirable rounded (0=none, 1=mostly spikey, some rounded, 2=mostly rounded, some spikey, 3=rounded). Roundtable assessment of mouthfeel assigned a scale of 0 to 2 with a score of 0 indicating water and a score of 2 indicating syrupy (0=water, 1=sucrosey, 2=syrupy). Roundtable assessment of bitterness assigned a scale of 0 to 6 with a score of 0 indicating no bitterness and a score of 6 indicating extreme sweetness linger (0=none, 1=trace, 2=slight, 3=moderate, 4=definite, 5=strong, 6=extreme). Roundtable assessment of off tastes assigned a scale of 0 to 6 with a score of 0 indicating no bitterness and a score of 6 indicating extreme off tastes (0=none, 1=trace, 2=slight, 3=moderate, 4=definite, 5=strong, 6=extreme). […] Roundtable assessment of botanical notes assigned a scale of 0 to 5 with a score of 0 indicating no botanical notes and a score of 5 indicating strong (0=none, 1=trace, 2=slight, 3=moderate, 4=definite, 5=strong). Exemplary tests are recorded below in Example 1.
For other sweetness attributes, the solutions were tested by a panel of at least four individuals that are highly-trained in tasting steviol glycoside solutions. The highly-trained panelists used a roundtable methodology to assess each sweetness attribute. To test each solution, the highly-trained panelists dispensed approximately 2 mL of each solution into their own mouths by transfer pipet, dispersed the solution by moving their tongues, and recorded a value for the particular sweetness attribute being tested. Between tasting solutions, the panelists were able to cleanse their palates with water. For each sweetness attribute, the panelist agreed on a descriptive scale with relative intensities assigned for each sweetness attribute and then recorded the values for each sweetness attribute against this. For example, this roundtable assessment of sweetness linger assigned a scale of 0 to 6 with a score of 0 indicating no sweetness linger and a score of 6 indicating extreme sweetness linger. Roundtable assessment of sweetness linger assigned a scale of 0 to 6 with a score of 0 indicating no sweetness linger and a score of 6 indicating extreme sweetness linger (0=none, 1=trace, 2=slight, 3=moderate, 4=definite, 5=strong, 6=extreme). […]

A short description of experiment [2]: Roundtable assessment of botanical notes (scale 0 to 5). Details: key: 0 = none; 1 = trace/faint; 2 = slight; 3 = moderate; 4 = definite; 5 = strong; 6 = extreme. In kind it is in vivo. The protocol:
For other sweetness attributes, the solutions were tested by a panel of at least four individuals that are highly-trained in tasting steviol glycoside solutions. The highly-trained panelists used a roundtable methodology to assess each sweetness attribute. To test each solution, the highly-trained panelists dispensed approximately 2 mL of each solution into their own mouths by transfer pipet, dispersed the solution by moving their tongues, and recorded a value for the particular sweetness attribute being tested. Between tasting solutions, the panelists were able to cleanse their palates with water. For each sweetness attribute, the panelist agreed on a descriptive scale with relative intensities assigned for each sweetness attribute and then recorded the values for each sweetness attribute against this. For example, this roundtable assessment of sweetness linger assigned a scale of 0 to 6 with a score of 0 indicating no sweetness linger and a score of 6 indicating extreme sweetness linger. Roundtable assessment of sweetness linger assigned a scale of 0 to 6 with a score of 0 indicating no sweetness linger and a score of 6 indicating extreme sweetness linger (0=none, 1=trace, 2=slight, 3=moderate, 4=definite, 5=strong, 6=extreme). Roundtable assessment of rounded assigned a scale of 0 to 3 with a score of 0 indicating spikey and a score of 3 indicating desirable rounded (0=none, 1=mostly spikey, some rounded, 2=mostly rounded, some spikey, 3=rounded). Roundtable assessment of mouthfeel assigned a scale of 0 to 2 with a score of 0 indicating water and a score of 2 indicating syrupy (0=water, 1=sucrosey, 2=syrupy). Roundtable assessment of bitterness assigned a scale of 0 to 6 with a score of 0 indicating no bitterness and a score of 6 indicating extreme sweetness linger (0=none, 1=trace, 2=slight, 3=moderate, 4=definite, 5=strong, 6=extreme). Roundtable assessment of off tastes assigned a scale of 0 to 6 with a score of 0 indicating no bitterness and a score of 6 indicating extreme off tastes (0=none, 1=trace, 2=slight, 3=moderate, 4=definite, 5=strong, 6=extreme).
Roundtable assessment of botanical notes assigned a scale of 0 to 5 with a score of 0 indicating no botanical notes and a score of 5 indicating strong (0=none, 1=trace, 2=slight, 3=moderate, 4=definite, 5=strong).
A series of assays were carried out to characterize botanical notes of sensory modifier compound (0=none, 1=trace/faint, 2=slight, 3=moderate, 4=definite, 5=strong) in steviol glycoside compositions using the roundtable methodology described in Example 1. […] Solutions of steviol glycosides and sensory modifier compound were prepared at increasing ratios of sensory modifier to steviol glycoside by weight. […] The concentration of steviol glycosides was 700 ppm in each solution. The solutions were tested for botanical notes.

[3] abbreviates: steviol glycoside 700 ppm + yerba mate mono/dicaffeoylquinic acids 630 ppm.
The mark [4] stands for this setting: steviol glycoside 700 ppm + yerba mate mono/dicaffeoylquinic acids 946 ppm.
Where [5] appears, read: steviol glycoside 700 ppm + yerba mate mono/dicaffeoylquinic acids […].
Where [6] appears, read: steviol glycoside 700 ppm, sensory modifier 0 ppm.
Where [7] appears, read: steviol glycoside 700 ppm + yerba mate mono/dicaffeoylquinic acids 270 ppm.
Setting [8] is: steviol glycoside 700 ppm + yerba mate mono/dicaffeoylquinic acids 540 ppm.
Setting [9] is: steviol glycoside 700 ppm + yerba mate mono/dicaffeoylquinic acids 810 ppm.
The mark [10] stands for this setting: RebM 700 ppm + cichoric acid (tartaric backbone) 514 ppm.
The mark [11] stands for this setting: RebM 700 ppm + cichoric acid (tartaric backbone) 772 ppm.
Setting [12] is: RebM 700 ppm + cichoric acid (tartaric backbone) […].
The mark [13] stands for this setting: RebM 700 ppm + rosmarinic acid 195 ppm.
The mark [14] stands for this setting: RebM 700 ppm + rosmarinic acid 391 ppm.
[15] abbreviates: RebM 700 ppm + rosmarinic acid 586 ppm.
Setting [16] is: steviol glycoside 700 ppm + yerba mate mono/dicaffeoylquinic acids 236 ppm.
[17] abbreviates: steviol glycoside 700 ppm + yerba mate mono/dicaffeoylquinic acids 300 ppm.
Setting [18] is: steviol glycoside 700 ppm + yerba mate mono/dicaffeoylquinic acids 400 ppm.
The mark [19] stands for this setting: steviol glycoside 700 ppm + yerba mate mono/dicaffeoylquinic acids 472 ppm.
Setting [20] is: steviol glycoside 700 ppm + yerba mate mono/dicaffeoylquinic acids 500 ppm.
Where [21] appears, read: steviol glycoside 700 ppm + yerba mate mono/dicaffeoylquinic acids 600 ppm.
Where [22] appears, read: steviol glycoside 700 ppm + yerba mate mono/dicaffeoylquinic acids 700 ppm.
Setting [23] is: steviol glycoside 700 ppm + yerba mate mono/dicaffeoylquinic acids 708 ppm.
[24] abbreviates: steviol glycoside 700 ppm + yerba mate mono/dicaffeoylquinic acids 800 ppm.

For the compound `C=C1C[C@@]23CC[C@H]4[C@@](C)(CCC[C@@]4(C)C(=O)O[C@@H]4O[C@H](CO)[C@@H](O)[C@H](O)[C@H]4O)[C@@H]2CC[C@]1(O[C@@H]1O[C@H](CO)[C@@H](O)[C@H](O[C@@H]2O[C@H](CO)[C@@H](O)[C@H](O)[C@H]2O)[C@H]1O[C@@H]1O[C@H](CO)[C@@H](O)[C@H](O)[C@H]1O)C3` [RebA, Rebaudioside A], the Sweetness linger entry in experiment [1] (setting [3]), in experiment [1] (setting [4]), in experiment [1] (setting [5]) and in experiment [1] (setting [6]) was “Not observed” each time. Besides, the Botanical notes in experiment [2] (setting [3]) is 1; in experiment [2] (setting [4]), 3; in experiment [2] (setting [5]), “Not observed”; in experiment [2] (setting [6]), “Not observed”.

On to `C=C1C[C@@]23CC[C@H]4[C@@](C)(CCC[C@@]4(C)C(=O)O[C@@H]4O[C@H](CO)[C@@H](O)[C@H](O)[C@H]4O[C@@H]4O[C@H](CO)[C@@H](O)[C@H](O)[C@H]4O)[C@@H]2CC[C@]1(O[C@@H]1O[C@H](CO)[C@@H](O)[C@H](O[C@@H]2O[C@H](CO)[C@@H](O)[C@H](O)[C@H]2O)[C@H]1O[C@@H]1O[C@H](CO)[C@@H](O)[C@H](O)[C@H]1O)C3` [RebD, Rebaudioside D], for which the Sweetness linger in experiment [1] (setting [7]) is given as 3; in experiment [1] (setting [8]) it was 2; in experiment [1] (setting [9]), 1; in experiment [1] (steviol glycoside 700 ppm, about 200 ppm sensory modifier), “reduced to commercially palatable levels”; in experiment [1] (setting [6]), 3. Also, the Botanical notes result in experiment [2] (Reb D 700 ppm, 0 ppm to about 500 ppm sensory modifier) was “no perceptible botanical notes”; in experiment [2] (Reb D 700 ppm, about 800 ppm sensory modifier), “slight”; in experiment [2] (setting [7]), 0; in experiment [2] (setting [8]), 0; in experiment [2] (setting [9]), 2; in experiment [2] (setting [6]), “Not observed”.

Take `C=C1C[C@@]23CC[C@H]4[C@@](C)(CCC[C@@]4(C)C(=O)O[C@@H]4O[C@H](CO)[C@@H](O)[C@H](O[C@@H]5O[C@H](CO)[C@@H](O)[C@H](O)[C@H]5O)[C@H]4O[C@@H]4O[C@H](CO)[C@@H](O)[C@H](O)[C@H]4O)[C@@H]2CC[C@]1(O[C@@H]1O[C@H](CO)[C@@H](O)[C@H](O[C@@H]2O[C@H](CO)[C@@H](O)[C@H](O)[C@H]2O)[C@H]1O[C@@H]1O[C@H](CO)[C@@H](O)[C@H](O)[C@H]1O)C3` [RebM, Rebaudioside M]: the Sweetness linger entry in experiment [1] (1:1 molar ratio with tartaric acid backbone modifier) is “no perceptible linger”; in experiment [1] (1:2 molar ratio with quinic acid backbone modifier) it was “no perceptible linger”; in experiment [1] (setting [10]) it was 0; in experiment [1] (setting [11]), 0; in experiment [1] (setting [12]), 0; in experiment [1] (setting [13]), 6. For the same compound, the Sweetness linger in experiment [1] (setting [14]) was 3; in experiment [1] (setting [15]) it was 2; in experiment [1] (RebM 700 ppm, above about 300 ppm quinic backbone modifier), “not perceptible”; in experiment [1] (RebM 700 ppm, at or before about 200 ppm quinic backbone modifier) it was “slight”; in experiment [1] (setting [16]) it was 2; in experiment [1] (setting [17]), 2. Also, the Sweetness linger was 0 in experiment [1] (setting [18]); 0 in experiment [1] (setting [19]); 0 in experiment [1] (setting [20]); 0 in experiment [1] (setting [21]); 0 and 2 in experiment [1] (setting [22]); 0 in experiment [1] (setting [23]). Besides, the Sweetness linger is given as 0 in experiment [1] (setting [24]) and 6 in experiment [1] (setting [6]). Besides, the Botanical notes in experiment [2] (setting [10]) came to 4; in experiment [2] (setting [11]), 5; in experiment [2] (setting [12]) it was 3; in experiment [2] (setting [13]), 2; in experiment [2] (setting [14]), 3; in experiment [2] (setting [15]), 2. Also, the Botanical notes entry is reported as “imperceptible” in experiment [2] (RebM 700 ppm, quinic backbone modifier between 0 ppm and about 400 ppm); “Not Observed” in experiment [2] (setting [16]); 0 in experiment [2] (setting [17]); 0 in experiment [2] (setting [18]); 1 in experiment [2] (setting [19]); 0 in experiment [2] (setting [20]). The Botanical notes in experiment [2] (setting [21]) worked out at 2; in experiment [2] (setting [22]), 2; in experiment [2] (setting [23]), 2; in experiment [2] (setting [24]), 2; in experiment [2] (setting [6]), 0.

For the origin of these results see patent publication US20190223483A1, “SENSORY MODIFIER COMPOUNDS” (CARGILL, INCORPORATED, priority 2017, published 2019).
